Source: PubChem BioAssay AID256 (DTP/NCI, 2004)
Where “and” joins values, the source holds several entries; their conditions need not be identical. Identical values can stand only once. Inconclusive results and toxic doses are left out. Residues, ends and D or L forms follow the SMILES beside them. *: point of attachment. Boc = CC(C)(C)OC(=O)*; NHNH2 = NN*

Test system: CD2F1 mice, L1210 leukemia ip, survival T/C
Assay: NCI In Vivo Anticancer Drug Screen. Data for tumor model L1210 Leukemia (intraperitoneal) in CD2F1 (CDF1) mice
Settings: higher = longer survival
How it was run: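 Tumor-bearing mice (transplanted tumor) were split into treated and vehicle control groups, and the measured endpoint of each treated group was divided by that of its vehicle controls.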

[1] = endpoint: mean survival time, dose: 5.0 mg/kg/injection, schedule: Q01DX001 (ip), vehicle: saline
[2] = endpoint: mean survival time, dose: 5.0 mg/kg/injection, schedule: Q04DX003 (ip), vehicle: saline
[3] = endpoint: mean survival time, dose: 100.0 mg/kg/injection, schedule: Q04DX003 (ip), vehicle: Klucel (hydroxypropylcellulose) (HPC)
[4] = endpoint: mean survival time, dose: 200.0 mg/kg/injection, schedule: Q04DX003 (ip), vehicle: Klucel (hydroxypropylcellulose) (HPC)
[5] = endpoint: mean survival time, dose: 25.0 mg/kg/injection, schedule: Q01DX009 (ip), vehicle: saline
[6] = endpoint: mean survival time, dose: 50.0 mg/kg/injection, schedule: Q01DX009 (ip), vehicle: saline
[7] = endpoint: mean survival time, dose: 100.0 mg/kg/injection, schedule: Q01DX009 (ip), vehicle: saline
[8] = endpoint: mean survival time, dose: 400.0 mg/kg/injection, schedule: Q04DX003 (ip), vehicle: Klucel (hydroxypropylcellulose) (HPC)

c1cc2c(cc1CC1CCNC1)OCO2 (centres undefined)
T/C [1]: 103 % of control
T/C (endpoint: mean survival time, dose: 5.0 mg/kg/injection, schedule: Q01DX009 (ip), vehicle: saline sonified): 100 % of control
T/C [2]: 101 % of control
T/C (endpoint: mean survival time, dose: 10.0 mg/kg/injection, schedule: Q01DX001 (ip), vehicle: saline): 103 % of control
T/C (endpoint: mean survival time, dose: 10.0 mg/kg/injection, schedule: Q01DX009 (ip), vehicle: saline sonified): 91 % of control
T/C (endpoint: mean survival time, dose: 10.0 mg/kg/injection, schedule: Q04DX003 (ip), vehicle: saline): 102 % of control
T/C (endpoint: mean survival time, dose: 20.0 mg/kg/injection, schedule: Q01DX001 (ip), vehicle: saline): 98 % of control
T/C (endpoint: mean survival time, dose: 20.0 mg/kg/injection, schedule: Q01DX009 (ip), vehicle: saline sonified): 100 % of control
T/C (endpoint: mean survival time, dose: 20.0 mg/kg/injection, schedule: Q04DX003 (ip), vehicle: saline): 101 % of control

O=C(NO)c1ccc(O)cc1
T/C (endpoint: mean survival time, dose: 267.0 mg/kg/injection, schedule: Q01DX009 (ip), vehicle: saline): 120 % of control

Nc1nc(Cl)c2nnn(C3CC(O)C(CO)C3)c2n1 (centres undefined)
T/C (endpoint: mean survival time, dose: 6.25 mg/kg/injection, schedule: Q01DX009 (ip), vehicle: Klucel (hydroxypropylcellulose) (HPC)): 117 % of control
T/C (endpoint: mean survival time, dose: 12.5 mg/kg/injection, schedule: Q01DX009 (ip), vehicle: Klucel (hydroxypropylcellulose) (HPC)): 106 % of control
T/C (endpoint: mean survival time, dose: 25.0 mg/kg/injection, schedule: Q01DX009 (ip), vehicle: Klucel (hydroxypropylcellulose) (HPC)): 117 % of control

CCOC(=O)CCC(C(=O)OCC)N1C(=O)c2ccccc2C1=O (centres undefined)
T/C (endpoint: mean survival time, dose: 25.0 mg/kg/injection, schedule: Q04DX002 (ip), vehicle: saline with Tween-80): 100 % of control
T/C (endpoint: mean survival time, dose: 50.0 mg/kg/injection, schedule: Q04DX002 (ip), vehicle: saline with Tween-80): 103 % of control
T/C (endpoint: mean survival time, dose: 100.0 mg/kg/injection, schedule: Q04DX002 (ip), vehicle: saline with Tween-80): 100 % of control

O=c1nc(N2CCSCC2)ccn1C1OC(CO)C(O)C1O (centres undefined)
T/C (endpoint: median survival time, dose: 12.5 mg/kg/injection, schedule: Q01DX005 (ip), vehicle: water): 100 % of control
T/C (endpoint: median survival time, dose: 25.0 mg/kg/injection, schedule: Q01DX005 (ip), vehicle: water): 101 % of control
T/C (endpoint: median survival time, dose: 50.0 mg/kg/injection, schedule: Q01DX005 (ip), vehicle: water): 102 % of control
T/C (endpoint: median survival time, dose: 100.0 mg/kg/injection, schedule: Q01DX005 (ip), vehicle: water): 101 % of control
T/C (endpoint: median survival time, dose: 200.0 mg/kg/injection, schedule: Q01DX005 (ip), vehicle: water): 103 % of control

COc1ccccc1/C=C\C(=O)C1COCN1 (centres undefined)
T/C (endpoint: mean survival time, dose: 37.5 mg/kg/injection, schedule: Q01DX009 (ip), vehicle: saline): 98 % of control
T/C (endpoint: mean survival time, dose: 75.0 mg/kg/injection, schedule: Q01DX009 (ip), vehicle: saline): 98 % of control
T/C (endpoint: mean survival time, dose: 150.0 mg/kg/injection, schedule: Q01DX009 (ip), vehicle: saline): 98 % of control

Nc1cc2c(ncn2C2OC(CO)C(O)C2O)c(=O)n1N (centres undefined)
T/C (endpoint: mean survival time, dose: 12.5 mg/kg/injection, schedule: Q01DX005 (ip), vehicle: distilled water + Tween-80): 96 % of control
T/C (endpoint: mean survival time, dose: 25.0 mg/kg/injection, schedule: Q01DX005 (ip), vehicle: distilled water + Tween-80): 97 % of control
T/C (endpoint: mean survival time, dose: 50.0 mg/kg/injection, schedule: Q01DX005 (ip), vehicle: distilled water + Tween-80): 105 % of control
T/C (endpoint: mean survival time, dose: 100.0 mg/kg/injection, schedule: Q01DX005 (ip), vehicle: distilled water + Tween-80): 94 % of control
T/C (endpoint: mean survival time, dose: 200.0 mg/kg/injection, schedule: Q01DX005 (ip), vehicle: distilled water + Tween-80): 94 % of control

O=C1NC(=O)C(c2ccccc2)(C2CCCC2)N1 (centres undefined)
T/C (endpoint: mean survival time, dose: 50.0 mg/kg/injection, schedule: Q04DX003 (ip), vehicle: Klucel (hydroxypropylcellulose) (HPC)): 104 % of control
T/C [3]: 98 % of control
T/C [4]: 95 % of control

CC[N+](C)(CC)CCNC(=O)C(c1ccccc1)c1ccccc1
T/C [5]: 104 % of control
T/C [6]: 102 % of control
T/C [7]: 95 % of control

NC(=O)c1c[nH]n(C2OC(CO)C(O)C2O)c1=O (centres undefined)
T/C (endpoint: median survival time, dose: 49.9 mg/kg/injection, schedule: Q01DX005 (ip), vehicle: saline): 100 % of control
T/C (endpoint: median survival time, dose: 99.8 mg/kg/injection, schedule: Q01DX005 (ip), vehicle: saline): 94 % of control
T/C (endpoint: median survival time, dose: 199.6 mg/kg/injection, schedule: Q01DX005 (ip), vehicle: saline): 94 % of control

C(=N\Nc1nc2ccccc2s1)/c1ccc(/C=N/Nc2nc3ccccc3s2)cc1
T/C [3]: 92 % of control
T/C [4]: 92 % of control
T/C [8]: 94 % of control

O=C(O)c1ccsc1
T/C (endpoint: mean survival time, dose: 37.5 mg/kg/injection, schedule: Q04DX003 (ip), vehicle: saline with Tween-80): 97 % of control
T/C (endpoint: mean survival time, dose: 75.0 mg/kg/injection, schedule: Q04DX003 (ip), vehicle: saline with Tween-80): 97 % of control

Cc1cc[n+](-c2c3c(nc4ccccc24)-c2ccccc2C(C)(C)C3)cc1
T/C (endpoint: mean survival time, dose: 25.0 mg/kg/injection, schedule: Q04DX003 (ip), vehicle: saline sonified): 96 % of control
T/C (endpoint: mean survival time, dose: 50.0 mg/kg/injection, schedule: Q04DX003 (ip), vehicle: saline sonified): 102 % of control
T/C (endpoint: mean survival time, dose: 100.0 mg/kg/injection, schedule: Q01DX001 (ip), vehicle: saline with Tween-80): 96 % of control

CCCCCCCCCCCC#N
T/C [3]: 102 % of control
T/C [4]: 97 % of control
T/C [8]: 104 % of control

O=C(N/N=C/c1ccccc1)c1cc([N+](=O)[O-])cc([N+](=O)[O-])c1
T/C (endpoint: mean survival time, dose: 100.0 mg/kg/injection, schedule: Q01DX009 (ip), vehicle: Klucel (hydroxypropylcellulose) (HPC)): 94 % of control
T/C (endpoint: mean survival time, dose: 200.0 mg/kg/injection, schedule: Q01DX009 (ip), vehicle: Klucel (hydroxypropylcellulose) (HPC)): 100 % of control
T/C (endpoint: mean survival time, dose: 400.0 mg/kg/injection, schedule: Q01DX009 (ip), vehicle: Klucel (hydroxypropylcellulose) (HPC)): 98 % of control

OC(CCl)Cc1ccccc1 (centres undefined)
T/C (endpoint: mean survival time, dose: 100.0 mg/kg/injection, schedule: Q04DX003 (ip), vehicle: saline with Tween-80): 95 % of control

C#CCCO
T/C [5]: 113 % of control
T/C [6]: 98 % of control
T/C [7]: 105 % of control

O=c1[nH]cc(N(CCCl)CCCl)c(=O)[nH]1
T/C (endpoint: mean survival time, dose: 0.05 mg/kg/injection, schedule: Q01DX009 (ip), vehicle: saline): 101 % of control
T/C (endpoint: mean survival time, dose: 0.08 mg/kg/injection, schedule: Q01DX009 (ip), vehicle: saline): 106 % of control
T/C (endpoint: mean survival time, dose: 0.14 mg/kg/injection, schedule: Q01DX009 (ip), vehicle: saline): 109 % of control
T/C (endpoint: mean survival time, dose: 0.23 mg/kg/injection, schedule: Q01DX009 (ip), vehicle: saline): 112 % of control
T/C (endpoint: mean survival time, dose: 0.23 mg/kg/injection, schedule: Q04DX003 (ip), vehicle: saline): 107 % of control
T/C (endpoint: mean survival time, dose: 0.39 mg/kg/injection, schedule: Q04DX003 (ip), vehicle: saline): 109 % of control
T/C (endpoint: mean survival time, dose: 0.65 mg/kg/injection, schedule: Q01DX001 (ip), vehicle: saline): 115 % of control
T/C (endpoint: mean survival time, dose: 0.65 mg/kg/injection, schedule: Q04DX003 (ip), vehicle: saline): 113 % of control
T/C (endpoint: mean survival time, dose: 1.1 mg/kg/injection, schedule: Q01DX009 (ip), vehicle: saline): 167 % of control
T/C (endpoint: mean survival time, dose: 1.1 mg/kg/injection, schedule: Q04DX003 (ip), vehicle: saline): 151 % of control
T/C (endpoint: mean survival time, dose: 1.8 mg/kg/injection, schedule: Q01DX009 (ip), vehicle: saline): 115 % of control
T/C (endpoint: mean survival time, dose: 1.8 mg/kg/injection, schedule: Q04DX003 (ip), vehicle: saline): 182 % of control
T/C (endpoint: mean survival time, dose: 3.0 mg/kg/injection, schedule: Q01DX001 (ip), vehicle: saline): 163 % of control
T/C [1]: 221 % of control
T/C [2]: 91 % of control
T/C (endpoint: mean survival time, dose: 8.4 mg/kg/injection, schedule: Q01DX001 (ip), vehicle: saline): 110 % of control

CN(C)C(=O)OCC#CCOC(=O)N(C)C
T/C (endpoint: mean survival time, dose: 100.0 mg/kg/injection, schedule: Q04DX002 (ip), vehicle: saline): 101 % of control
T/C (endpoint: mean survival time, dose: 200.0 mg/kg/injection, schedule: Q04DX002 (ip), vehicle: saline): 86 % of control

CC1SC(=S)NC1=O (centres undefined)
T/C (endpoint: mean survival time, dose: 100.0 mg/kg/injection, schedule: Q04DX003 (ip), vehicle: saline sonified): 93 % of control
T/C (endpoint: mean survival time, dose: 200.0 mg/kg/injection, schedule: Q04DX003 (ip), vehicle: saline sonified): 113 % of control
T/C (endpoint: mean survival time, dose: 400.0 mg/kg/injection, schedule: Q04DX003 (ip), vehicle: saline sonified): 96 % of control

CNC(=O)ON(C(C)=O)C(=O)NC
T/C (endpoint: mean survival time, dose: 12.5 mg/kg/injection, schedule: Q01DX009 (ip), vehicle: saline): 100 % of control and 107 % of control
T/C [5]: 107 % of control and 109 % of control
T/C [6]: 114 % of control and 109 % of control

CC(C)CC(NC(=O)C(Cc1c[nH]c2ccccc12)NC(=O)OC(C)(C)C)C(=O)NN (stereo not drawn) (Boc-Trp-Leu-NHNH2; configuration not given here)
T/C [5]: 105 % of control
T/C [6]: 106 % of control and 109 % of control
T/C [7]: 117 % of control and 124 % of control
T/C (endpoint: mean survival time, dose: 200.0 mg/kg/injection, schedule: Q01DX009 (ip), vehicle: saline): 117 % of control
